Source: patent publication US5773449A, “Thioquinolone compounds which have useful pharmaceutical activity” (Zenyaku Kogyo Kabushiki Kaisha, priority 1994, dated 1998)

System: Helicobacter pylori standard strain ATCC 43526 (NCTC 11916)
Assay: Antibacterial test 1: agar plate dilution method (anaerobic MIC method) against Hp
Type: cell-based
Conditions: 72 h; Helicobacter pylori ATCC 43526 (NCTC 11916); brucella agar + 7% horse blood, microaerobic, 37° C., 3 days
Method: Antibacterial test against Hp was performed in substantial accordance with agar plate dilution method (anaerobic MIC method) based on Standard method of The Japan Society of Chemotherapy to determine minimum inhibitory concentration (MIC) of the respective test compounds. The respective test compounds were sequentially dissolved in dimethyl sulfoxide (DMSO) and serially diluted twofold. […] Strain used for inoculation was Helicobacter pylori standard strain ATCC 43526 (NCTC 11916). For pre-culturing of bacteria to be inoculated, the above-mentioned strain freezingly conserved at -135° C. was thawed in a warm bath (40° C.), applied on a brucella agar medium containing 7% horse blood free from fibrin, and microaerobically cultured in a jar for anaerobic bacteria at 37° C. for 3 days. The solution of bacteria to be inoculated was prepared by collecting colonies grown on the culture medium and suspending the same in the brucella broth.

MIC, 0.05 µg/mL:
CC1(C)S[C@@H]2[C@H](NC(=O)[C@H](N)c3ccc(O)cc3)C(=O)N2[C@H]1C(=O)O [amoxicillin, reference compound]

MIC, 3.13 µg/mL:
O=[N+]([O-])c1ccc2c(=S)cc[nH]c2c1 [compound 19, 7-Nitroquinoline-4(1H)-thione]
S=c1cc[nH]c2cc(-c3ccc4ccccc4c3)ccc12 [compound 46, 7-(2-Naphtyl)quinoline-4(1H)-thione]

MIC, 1.56 µg/mL:
CC(C)c1ccc2c(=S)cc[nH]c2c1 [compound 2, 7-Isopropylquinoline-4(1H)-thione]
S=c1cc[nH]c2cc(-c3ccccc3)ccc12 [compound 3, 7-Phenylquinoline-4(1H)-thione]
S=c1cc[nH]c2cc(COc3ccccc3)ccc12 [compound 6, 7-Phenoxymethylquinoline-4(1H)-thione]
CC(=O)c1ccc2c(=S)cc[nH]c2c1 [compound 13, 7-Acetylquinoline-4(1H)-thione]
COCc1ccc2c(=S)cc[nH]c2c1 [compound 16, 7-Methoxymethylquinoline-4(1H)-thione]

MIC, 6.25 µg/mL:
O=[N+]([O-])c1cccc2c(=S)cc[nH]c12 [compound 7, 8-Nitroquinoline-4(1H)-thione]
NC(=O)c1ccc2c(=S)cc[nH]c2c1 [compound 12, 7-Carbamoylquinoline-4(1H)-thione]
S=c1cc[nH]c2cc(OCc3ccccc3)ccc12 [compound 25, 7-Benzyloxyquinoline-4(1H)-thione]
CN(C)Cc1ccc2c(=S)cc[nH]c2c1 [compound 33, 7-N,N-Dimethylaminomethylquinoline-4(1H)-thione]
CCCCCCCCCCCCOc1ccc2c(=S)cc[nH]c2c1 [compound 52, 7-Dodecyloxyquinoline-4(1H)-thione]

MIC, 0.39 µg/mL:
COc1ccc2c(=S)cc[nH]c2c1 [compound 1, 7-Methoxyquinoline-4(1H)-thione]
Cc1ccc2c(=S)cc[nH]c2c1 [compound 11, 7-Methylquinoline-4(1H)-thione]
CCCCCCc1ccc2c(=S)cc[nH]c2c1 [compound 15, 7-n-Hexylquinoline-4(1H)-thione]
CSc1ccc2c(=S)cc[nH]c2c1 [compound 17, 7-Methylthioquinoline-4(1H)-thione]
COc1cccc2c(=S)cc[nH]c12 [compound 42, 8-Methoxyquinoline-4(1H)-thione]
S=c1cc[nH]c2c1ccc1cccnc12 [compound 45, 1,10-Phenanthroline-4(1H)-thione]

System: S.aureus FDA 209P
Assay: Antibacterial Test 2: agar plate dilution method (aerobic MIC method), S.aureus
Type: cell-based
Conditions: Staphylococcus aureus, FDA209P, sensitive-disk agar medium-N
Method: (§1) Then, tested were antibacterial activities of the typical compounds of the present invention against gram-positive and-negative bacteria other than Hp. MICs of the typical compounds of the present invention were determined in substantial accordance with agar plate dilution method (aerobic MIC method) based on Standard method of The Japan Society of Chemotherapy.
(§2) The respective test compound were dissolved in dimethyl sulfoxide (DMSO) and serially diluted twofold. These diluted solutions of the compounds were respectively added to sensitive-disk agar medium-N (manufactured by NISSUI SEIYAKU) to prepare agar plates for determination with concentration of 0.05-100 μg/ml.
(§3) The below-mentioned strains freezingly conserved at -135° C. were thawed in a warm bath (40° C.), cultured in a sensitivity-determining bouillon at 37° C. for 18-20 hours, and then diluted with the above-mentioned medium to prepare about 1.0×10^6CFU/ml of bacterial solution.
(§4) Inoculation was made by 5 μl by multi-inoculator (manufactured by SAKUMA SEISAKUSHO). Culturing was made under the same conditions as those of the pre-culturing and the MIC (unit: μg/ml) was determined by observing whether the bacteria grew or not.

MIC, 50 µg/mL:
COc1ccc2c(=S)cc[nH]c2c1 [compound 1, 7-Methoxyquinoline-4(1H)-thione]
COCc1ccc2c(=S)cc[nH]c2c1 [compound 16, 7-Methoxymethylquinoline-4(1H)-thione]

MIC, > 100 µg/mL:
CC(C)c1ccc2c(=S)cc[nH]c2c1 [compound 2, 7-Isopropylquinoline-4(1H)-thione]
S=c1cc[nH]c2cc(-c3ccccc3)ccc12 [compound 3, 7-Phenylquinoline-4(1H)-thione]
S=c1cc[nH]c2cc(COc3ccccc3)ccc12 [compound 6, 7-Phenoxymethylquinoline-4(1H)-thione]
CCCCCCc1ccc2c(=S)cc[nH]c2c1 [compound 15, 7-n-Hexylquinoline-4(1H)-thione]
CSc1ccc2c(=S)cc[nH]c2c1 [compound 17, 7-Methylthioquinoline-4(1H)-thione]

MIC, 0.1 µg/mL:
CC1(C)S[C@@H]2[C@H](NC(=O)[C@H](N)c3ccc(O)cc3)C(=O)N2[C@H]1C(=O)O [amoxicillin, reference compound]

System: M.luteus ATCC 9341
Assay: Antibacterial Test 2: agar plate dilution method (aerobic MIC method), M.luteus
Type: cell-based
Conditions: Micrococcus luteus, ATCC9341, sensitive-disk agar medium-N
Method: as §1, §2, §3, §4

MIC, > 100 µg/mL:
COc1ccc2c(=S)cc[nH]c2c1 [compound 1, 7-Methoxyquinoline-4(1H)-thione]
CC(C)c1ccc2c(=S)cc[nH]c2c1 [compound 2, 7-Isopropylquinoline-4(1H)-thione]
S=c1cc[nH]c2cc(-c3ccccc3)ccc12 [compound 3, 7-Phenylquinoline-4(1H)-thione]
S=c1cc[nH]c2cc(COc3ccccc3)ccc12 [compound 6, 7-Phenoxymethylquinoline-4(1H)-thione]
CCCCCCc1ccc2c(=S)cc[nH]c2c1 [compound 15, 7-n-Hexylquinoline-4(1H)-thione]
CSc1ccc2c(=S)cc[nH]c2c1 [compound 17, 7-Methylthioquinoline-4(1H)-thione]

MIC, ≤ 0.05 µg/mL:
CC1(C)S[C@@H]2[C@H](NC(=O)[C@H](N)c3ccc(O)cc3)C(=O)N2[C@H]1C(=O)O [amoxicillin, reference compound]

MIC, 100 µg/mL:
COCc1ccc2c(=S)cc[nH]c2c1 [compound 16, 7-Methoxymethylquinoline-4(1H)-thione]

System: E.faecalis RIMD 3336001
Assay: Antibacterial Test 2: agar plate dilution method (aerobic MIC method), E.faecalis
Type: cell-based
Conditions: Enterococcus faecalis, RIMD3336001, sensitive-disk agar medium-N
Method: as §1, §2, §3, §4

MIC, > 100 µg/mL:
COc1ccc2c(=S)cc[nH]c2c1 [compound 1, 7-Methoxyquinoline-4(1H)-thione]
CC(C)c1ccc2c(=S)cc[nH]c2c1 [compound 2, 7-Isopropylquinoline-4(1H)-thione]
S=c1cc[nH]c2cc(-c3ccccc3)ccc12 [compound 3, 7-Phenylquinoline-4(1H)-thione]
S=c1cc[nH]c2cc(COc3ccccc3)ccc12 [compound 6, 7-Phenoxymethylquinoline-4(1H)-thione]
CCCCCCc1ccc2c(=S)cc[nH]c2c1 [compound 15, 7-n-Hexylquinoline-4(1H)-thione]
CSc1ccc2c(=S)cc[nH]c2c1 [compound 17, 7-Methylthioquinoline-4(1H)-thione]

MIC, 50 µg/mL:
COCc1ccc2c(=S)cc[nH]c2c1 [compound 16, 7-Methoxymethylquinoline-4(1H)-thione]

MIC, 0.2 µg/mL:
CC1(C)S[C@@H]2[C@H](NC(=O)[C@H](N)c3ccc(O)cc3)C(=O)N2[C@H]1C(=O)O [amoxicillin, reference compound]

System: B.subtilis PCI 219
Assay: Antibacterial Test 2: agar plate dilution method (aerobic MIC method), B.subtilis
Type: cell-based
Conditions: Bacillus subtilis, PCI219, sensitive-disk agar medium-N
Method: as §1, §2, §3, §4

MIC, > 100 µg/mL:
COc1ccc2c(=S)cc[nH]c2c1 [compound 1, 7-Methoxyquinoline-4(1H)-thione]
CC(C)c1ccc2c(=S)cc[nH]c2c1 [compound 2, 7-Isopropylquinoline-4(1H)-thione]
S=c1cc[nH]c2cc(-c3ccccc3)ccc12 [compound 3, 7-Phenylquinoline-4(1H)-thione]
S=c1cc[nH]c2cc(COc3ccccc3)ccc12 [compound 6, 7-Phenoxymethylquinoline-4(1H)-thione]
CCCCCCc1ccc2c(=S)cc[nH]c2c1 [compound 15, 7-n-Hexylquinoline-4(1H)-thione]
CSc1ccc2c(=S)cc[nH]c2c1 [compound 17, 7-Methylthioquinoline-4(1H)-thione]

MIC, 100 µg/mL:
COCc1ccc2c(=S)cc[nH]c2c1 [compound 16, 7-Methoxymethylquinoline-4(1H)-thione]

MIC, 0.2 µg/mL:
CC1(C)S[C@@H]2[C@H](NC(=O)[C@H](N)c3ccc(O)cc3)C(=O)N2[C@H]1C(=O)O [amoxicillin, reference compound]

System: E.coli NIHJ JC-2
Assay: Antibacterial Test 2: agar plate dilution method (aerobic MIC method), E.coli
Type: cell-based
Conditions: Escherichia coli, NIHJJC2, sensitive-disk agar medium-N
Method: as §1, §2, §3, §4

MIC, 3.13 µg/mL:
CC1(C)S[C@@H]2[C@H](NC(=O)[C@H](N)c3ccc(O)cc3)C(=O)N2[C@H]1C(=O)O [amoxicillin, reference compound]

MIC, > 100 µg/mL:
COc1ccc2c(=S)cc[nH]c2c1 [compound 1, 7-Methoxyquinoline-4(1H)-thione]
CC(C)c1ccc2c(=S)cc[nH]c2c1 [compound 2, 7-Isopropylquinoline-4(1H)-thione]
S=c1cc[nH]c2cc(-c3ccccc3)ccc12 [compound 3, 7-Phenylquinoline-4(1H)-thione]
S=c1cc[nH]c2cc(COc3ccccc3)ccc12 [compound 6, 7-Phenoxymethylquinoline-4(1H)-thione]
CCCCCCc1ccc2c(=S)cc[nH]c2c1 [compound 15, 7-n-Hexylquinoline-4(1H)-thione]
COCc1ccc2c(=S)cc[nH]c2c1 [compound 16, 7-Methoxymethylquinoline-4(1H)-thione]
CSc1ccc2c(=S)cc[nH]c2c1 [compound 17, 7-Methylthioquinoline-4(1H)-thione]

System: K.pneumoniae PCI 602
Assay: Antibacterial Test 2: agar plate dilution method (aerobic MIC method), K.pneumoniae
Type: cell-based
Conditions: Klebsiella pneumoniae, PCI602, sensitive-disk agar medium-N
Method: as §1, §2, §3, §4

MIC, 50 µg/mL:
CC1(C)S[C@@H]2[C@H](NC(=O)[C@H](N)c3ccc(O)cc3)C(=O)N2[C@H]1C(=O)O [amoxicillin, reference compound]

MIC, > 100 µg/mL:
COc1ccc2c(=S)cc[nH]c2c1 [compound 1, 7-Methoxyquinoline-4(1H)-thione]
CC(C)c1ccc2c(=S)cc[nH]c2c1 [compound 2, 7-Isopropylquinoline-4(1H)-thione]
S=c1cc[nH]c2cc(-c3ccccc3)ccc12 [compound 3, 7-Phenylquinoline-4(1H)-thione]
S=c1cc[nH]c2cc(COc3ccccc3)ccc12 [compound 6, 7-Phenoxymethylquinoline-4(1H)-thione]
CCCCCCc1ccc2c(=S)cc[nH]c2c1 [compound 15, 7-n-Hexylquinoline-4(1H)-thione]
COCc1ccc2c(=S)cc[nH]c2c1 [compound 16, 7-Methoxymethylquinoline-4(1H)-thione]
CSc1ccc2c(=S)cc[nH]c2c1 [compound 17, 7-Methylthioquinoline-4(1H)-thione]

System: P.aeruginosa IFO 3445
Assay: Antibacterial Test 2: agar plate dilution method (aerobic MIC method), P.aeruginosa
Type: cell-based
Conditions: Pseudomonas aeruginosa, IFO3445, sensitive-disk agar medium-N
Method: as §1, §2, §3, §4

MIC, > 100 µg/mL:
CC1(C)S[C@@H]2[C@H](NC(=O)[C@H](N)c3ccc(O)cc3)C(=O)N2[C@H]1C(=O)O [amoxicillin, reference compound]
COc1ccc2c(=S)cc[nH]c2c1 [compound 1, 7-Methoxyquinoline-4(1H)-thione]
CC(C)c1ccc2c(=S)cc[nH]c2c1 [compound 2, 7-Isopropylquinoline-4(1H)-thione]
S=c1cc[nH]c2cc(-c3ccccc3)ccc12 [compound 3, 7-Phenylquinoline-4(1H)-thione]
S=c1cc[nH]c2cc(COc3ccccc3)ccc12 [compound 6, 7-Phenoxymethylquinoline-4(1H)-thione]
CCCCCCc1ccc2c(=S)cc[nH]c2c1 [compound 15, 7-n-Hexylquinoline-4(1H)-thione]
COCc1ccc2c(=S)cc[nH]c2c1 [compound 16, 7-Methoxymethylquinoline-4(1H)-thione]
CSc1ccc2c(=S)cc[nH]c2c1 [compound 17, 7-Methylthioquinoline-4(1H)-thione]
